The results in this text go back to patent US4402972A, “Cyclopropane carboxylic acid derivatives” (Roussel Uclaf, priority 1980, dated 1983).

The structures appear in SMILES notation.

Assay [1] relates to mixture of spores of Aerobacter aerogenes, Pseudomonas aeruginosa, Escherichia coli, Serratia mancescens and Bacillus subtilis. The experiment in a line: Bactericidal activity (3% carboxymethyl starch in water). Type of assay: cell-based. The settings on record: for bacterial population after 48 hours: control 12 × 10^7; for bacterial population after 8 days: control 16 × 10^7. The protocol: The bactericidal activity of (1R,cis) 2,2-dimethyl-3-[Z-2-(methoxycarbonyl)-ethenyl]-cyclopropane-carboxylic acid was determined with a solution of 3% of carboxymethyl starch in water. The test compound was placed in 1 ml of water and 5 ml of an innoculum of a mixture of spores of Aerobacter aerogenes, Pseudomonas aeruginosa, Escherichia coli, Serratia mancescens and Bacillus subtilis were added thereto. The mixture was placed in an oven for 48 hours at 37° C. and then for 6 days at 20° C. The bacterial population ([…]) was determined 48 hours and 8 days by the serum dihibition method and incorporation into broth containing agar.

Assay [2] has as its system mixture of spores of Geotrichum, Trichosporon and Cephalosporium. The experiment in a line: Anti-fungal test on oils (3% synthetic fluid). It counts as cell-based. The following applies: for Anti-fungal growth after 48 hours: control 49 × 10^3 Geo. + 80 × 10^3 Tri. + 11 × 10^3 Cep. The protocol: A solution of 3% of synthetic fluid was used to test the anti-fungal activity of (1R,cis) 2,2-dimethyl-3-[Z-2-(methoxycarbonyl)-ethenyl]-cyclopropane-carboxylic acid and contamination was effected with 5 ml of an innoculum consisting of a mixture of spores of Geotrichum, Trichosporon and Cephalosporium.

The subject of assay [3] is mixture of spores of Fusarium roseum, Penicillium roquefonti and Aspergilus niger. Put plainly: Antifungal activity, adhesive test (3% carboxymethyl starch). Type of assay: cell-based. The following applies: for Growth of Fungus after 48 hours / Growth of Fungus after 8 days: scale of 3 to 0, untreated control 3. As for the experimental part:
The antifungal activity of (1R,cis) 2,2-dimethyl-3-[Z-2-(methoxycarbonyl)-ethenyl]-cyclopropane-carboxylic acid was determined in an adhesive test using an aqueous 3% carboxymethyl starch solution. The test compound was dissolved in 1 ml of acetone and 5 ml of an innoculum consisting of a mixture of spores of Fusarium roseum, Penicillium roquefonti and Aspergilus niger were added thereto. The development of fungus after 48 hours and 8 days was compared to an untreated control on a scale of 3 to 0.

For assay [4], the system named is Fusarium, Penicillium, Aspergilus, Geotrichum, Trichosporon and Cephalosporium. Put plainly: Antifungal activity of the acids (general statement). It counts as cell-based.
In assay [5] the test system is Spodoptera littoralis larvae. The experiment in a line: Activity against Spodoptera littoralis larvae, topical application. Type of assay: in vivo. The settings on record: dorsal thorax, fourth stage larvae, 48 hours. The protocol: The test was carried out on larvae of Spodoptera littoralis by applying an acetone solution of the test compound with an Arnold micro-manipulator to the dorsal thorax of the larvae. 10 to 15 larvae were used for each tested dose and the larvae were in the fourth stage (about 10 days old at 24° C. and 65% relative humidity). The larvae were then placed in an artifical medium (Poitout medium) and the number of dead were determined after 48 hours to calculate the LD50 in ng.

The test system of the next assay is insects. Put plainly: Insecticidal activity (general statement). The settings on record: in vivo.
In assay [6] the test system is Epilachna varivestris Larvae. Put plainly: Activity against Epilachna varivestris larvae, topical application. Type of assay: in vivo. The settings on record: for LD50: topical, second last stage larvae, 72 hours. As for the experimental part: The test was carried out by topical application of the test compounds as in test B and the larvae of Epilachna variestris were in second last stage. The treated larvae were then placed on bean plants and the number of dead was determined after 72 hours to calculate the LD50 in ng.

For assay [7], the system named is houseflies. The experiment in a line: Knock-down activity on houseflies, direct spray in Kearns and March chamber. It counts as in vivo. The following applies: for KT50: 0.25 g/l solution, 2 ml, direct spray, 4 day old females. As for the experimental part: 50 4 day old female houseflies per dose were directly sprayed in a Kearns and March chamber with a solution of the 0.25 g/l of the test compound in 2 ml of a mixture of 5% of acetone and Isopar L (petroleum solvent) in one second.

Assay [8] has as its system houseflies. The experiment in a line: Insecticidal activity on houseflies, topical application. It counts as in vivo. The settings on record: 1 μl acetone solution, dorsal thorax, 4 day old females, 24 hours. The protocol:
The test was effected on 4 day old female houseflies which received a topical application of 1 μl of an acetone solution of the test compound on the dorsal thorax with an Arnold micro-manipulator. 50 insects were used for each test and the number of dead insects were determined after 24 hours to calculate the LD50 dose in nanograms (the dose killing 50% of the insects).

Assay [9] has as its system Boophilus microplus larvae (DDT resistant). Put plainly: Activity against Boophilus microplus larvae, DDT resistant strain. It counts as in vivo. The protocol:
(§1) A 10% emulsifiable concentrate was prepared by dissolving the test compound of Example 6 in a mixture of dimethylformamide, emulsifiers and Arcopal and the concentrate was diluted with water to obtain solutions of 10,5 and 1 ppm of active compound. The different solutions were sprayed by a spraying tower on to larvae of tropical cattle ticks of the Boophilus microplus type (Mexico sensitive and DDT resistant strains) and the number of dead and live larvae was determined after 24 hours.

For assay [10], the system named is Boophilus microplus ticks (Mexico sensitive strain). Put plainly: Inhibition of reproduction of Boophilus microplus ticks. It counts as in vivo. As for the experimental part:
Female Boophilus microplus ticks of the Mexico sensitive strain ready to lay eggs were immersed for 5 minutes in solutions of 100, 50, 25, 12.50 and 6.25 ppm of the compound of Example 6 and then they were placed in a heated enclosure to lay their eggs.

Another assay relates to Amblyomma hebraeum. Put plainly: Activity against Amblyomma hebraeum ticks. Type of assay: in vivo. The protocol: as §1
(§2) The test procedure of F was repeated with the compound of Example 6 at doses of 100, 10 and 1 ppm using 10 ticks of Rhipicephalus appendiculatus or Amblyomma hebraeum per test as above.

Assay [11] has as its system Boophilus microplus larvae (Mexico sensitive). The experiment in a line: Activity against Boophilus microplus larvae, Mexico sensitive strain. Type of assay: in vivo. As for the experimental part: as §1
Assay [12] relates to Rhipicephalus appendiculatus. Put plainly: Activity against Rhipicephalus appendiculatus ticks. Type of assay: in vivo. The protocol:
as §1, §2

Where [13] appears, read: Mexico sensitive and DDT resistant strains together.
Where [14] appears, read: Rhipicephalus microplus, in Bos taurus, 1 ppm, 24 hours.
Where [15] appears, read: Rhipicephalus microplus, in Bos taurus, 5 ppm, 24 hours.
Setting [16] is: Rhipicephalus microplus, in Bos taurus, 10 ppm, 24 hours.

With `COC(=O)/C=C\[C@H]1[C@@H](C(=O)O)C1(C)C` (relative stereo) [(1R,cis) 2,2-dimethyl-3-[(Z)-2-(methoxycarbonyl)-ethenyl]-cyclopropane-carboxylic acid], the “bactericidal activity (in words)” value in assay [1] is “good bactericidal activity”. Moreover, the figures for the “bacterial population after 48 hours” value in [1] (0.025%) and in [1] (0.05%) were 10 × 10^4 colorless ml and 52 × 10^2 colorless ml, respectively. The “bacterial population after 8 days” value in assay [1] (0.025%) was 16 × 10^6 colorless ml; in assay [1] (0.05%), 68 × 10^4 colorless ml. The “antifungal activity on oils (in words)” value in assay [2] is on record as “good antifungal activity”. Further, the “Anti-fungal growth after 48 hours” value in assay [2] (0.5 % concentration) and in [2] (1 % concentration) was 0 in each case. The “anti-fungal activity (in words)” value in assay [3] is given as “good anti-fungal activity”. The entries for the “Growth of Fungus after 48 hours” value in assay [3] (0.01 % concentration) and in assay [3] (0.05 % concentration) were 3 and 0, respectively. Moreover, the “Growth of Fungus after 8 days” value in [3] (0.01 % concentration) turned out to be 3; in assay [3] (0.05 % concentration), 0. Also, the “fungicidal properties / antifungal activity (in words)” value in assay [4] is on record as “interesting fungicidal properties”.
In the case of `COC(=O)/C=C\[C@H]1[C@@H](C(=O)O[C@H](C#N)c2cccc(Oc3ccccc3)c2)C1(C)C` [Example 1, (S)α-cyano-3-phenoxy-benzyl (1R,cis) 2,2-dimethyl-3-[Z-2-methoxycarbonyl-ethenyl]-cyclopropane-carboxylate], the values for the LD50 (in assay [5]; in assay [6]; in the assay on houseflies [8]) were 3.602 ng, 8.290 ng and 7.128 ng, respectively. Further, the “insecticidal activity (in words)” value with insects is “particularly remarkable insecticidal activity”. Also, in the assay with houseflies [7], the KT50 was determined as 1.226 min. Besides, the “knock-down activity (in words)” value in the assay on houseflies [7] (in vivo) is “remarkable knock-down activity”.
Consider `CCOC(=O)/C=C\[C@H]1[C@@H](C(=O)O[C@H](C#N)c2cccc(Oc3ccccc3)c2)C1(C)C` [Example 3, (S)α-cyano-3-phenoxy-benzyl (1R,cis) 2,2-dimethyl-3-[Z-2-(ethoxycarbonyl)-ethenyl]-cyclopropane-carboxylate], for which the figures for the LD50 (in [5]; in assay [6]; with houseflies [8]) were 3.260 ng, 8.850 ng and 3.494 ng, respectively. In the assay on houseflies [7], this compound returned a KT50 of 3.340 min.
As to `CC(C)OC(=O)/C=C\[C@H]1[C@@H](C(=O)O[C@H](C#N)c2cccc(Oc3ccccc3)c2)C1(C)C` [Example 5, (S)α-cyano-3-phenoxy-benzyl (1R,cis) 2,2-dimethyl-3-[Z-2-(isopropoxycarbonyl)-ethenyl]-cyclopropane-carboxylate], the LD50 is 7.920 ng in assay [5], 3.705 ng in assay [6] and 2.781 ng in the assay with houseflies [8]. Besides, the KT50 in the assay with houseflies [7] is 4.390 min.
Broadly, the mortality is the share of the test organisms that died. Broadly, the inhibition is the change of the read-out against control, counted positive when it falls. Low values mean a response near the control, high ones a response far below the control. For the compound `CC(C)(C)OC(=O)/C=C\[C@H]1[C@@H](C(=O)O[C@H](C#N)c2cccc(Oc3ccccc3)c2)C1(C)C` [Example 6, (S)α-cyano-3-phenoxy-benzyl (1R,cis) 2,2-dimethyl-3-[Z-2-(tert.-butoxycarbonyl)-ethenyl]-cyclopropane-carboxylate], the “activity against Boophilus microplus larvae, DDT resistant (in words)” value in assay [9] (setting [13]) is reported as “remarkable activity”. Further, the mortality at 1 ppm is 100% in assay [9] (setting [14]); 70% with Amblyomma hebraeum (Amblyomma hebraeum, 1 ppm); 100% in assay [11] (setting [14]); 100% in assay [12] (Rhipicephalus appendiculatus, 1 ppm). The mortality at 5 ppm in assay [9] (setting [15]) and in assay [11] (setting [15]) was 100% each time. Besides, the mortality at 10 ppm in assay [9] (setting [16]) amounted to 100%; in the assay with Amblyomma hebraeum (Amblyomma hebraeum, 10 ppm), 100%; in [11] (setting [16]), 100%; in assay [12] (Rhipicephalus appendiculatus, 10 ppm), 100%. Besides, 6.25 ppm produced 100% inhibition in [10] (Rhipicephalus microplus, 5 min, 6.25 ppm, 5 minutes immersion). In assay [10] (Rhipicephalus microplus, 5 min, 12.50 ppm, 5 minutes immersion), this compound returned an inhibition at 12.5 ppm of 100%. In assay [10] (Rhipicephalus microplus, 5 min, 25 ppm, 5 minutes immersion), this compound returned an inhibition at 25 ppm of 100%. Besides, at 50 ppm the inhibition in assay [10] (Rhipicephalus microplus, 5 min, 50 ppm, 5 minutes immersion) was 100%. In assay [10] (Rhipicephalus microplus, 5 min, 100 ppm, 5 minutes immersion), the inhibition at 100 ppm was determined as 100%. Further, the “tickicide activity, reproduction test (in words)” value in assay [10] (in vivo) is on record as “remarkable tickicide activity”. For the same compound, the mortality at 100 ppm worked out at 100% in the assay on Amblyomma hebraeum (Amblyomma hebraeum, 100 ppm) and 100% in [12] (Rhipicephalus appendiculatus, 100 ppm). The “tickicide activity against Amblyomma hebraeum (in words)” value in the assay on Amblyomma hebraeum (in vivo) is on record as “excellent tickicide activity”. Moreover, in assay [11] (setting [13]), the “activity against Boophilus microplus larvae, Mexico sensitive (in words)” value is listed as “remarkable activity”. Moreover, the “insecticidal activity against Epilachna larvae (in words)” value in [6] (in vivo) was “good insecticidal activity”. The LD50 in assay [6] is on record as 0.446 ng. In addition, in assay [12] (in vivo), the “tickicide activity against Rhipicephalus appendiculatus (in words)” value is on record as “excellent tickicide activity”.
